For two compounds, hair loss results are on record in patent publication US20130079312A1, “Method of Treating Hair Loss Due to Systemic Chemotherapy” (ELORAC, LTD., priority 2011, published 2013).

Molecules are shown by their SMILES.

The assay can be described thus: Topical vasoconstrictor formulation applied to hair-bearing areas of patients receiving cancer chemotherapy; hair loss. In kind it is in vivo.

As for `Cc1cc(C(C)(C)C)c(O)c(C)c1CC1=NCCN1` [Oxymetazoline, oxymetazoline], under “Oxymetazoline 2.0% by weight in hydroethanolic foam, scalp and eyebrows, 60 minutes prior to intravenous nitrogen mustard, then three times daily for two week intervals”, the hair loss entry was “prevention of major hair loss”.
Regarding `c1ccc2c(CC3=NCCN3)cccc2c1` [naphazoline], where the note is “scalp lotion containing 0.01% naphazoline, 30 minutes prior to and 15 minutes after each course of intravenous docetaxel, breast cancer patients”, the hair loss result is on record as “lose little, if any, of their hair”.
